Source: ChEMBL document CHEMBL5724796, “Tm Shift (DSF) assay results for EUbOPEN Chemogenomics Library” (2024)
Residues, ends and D or L forms follow the SMILES beside them.

How the values were obtained:
[1] = target: Fibroblast growth factor receptor 2 (Homo sapiens) (UniProt P21802); settings: Compound concentration 20.0 uM
Description: Thermal Shift Assay. Domain: start/stop: T457-E768

Peregrin (Homo sapiens) = target: T1, Peregrin (Homo sapiens) (UniProt P55201); settings: Compound concentration 20.0 uM
T1 sequence (whole entry): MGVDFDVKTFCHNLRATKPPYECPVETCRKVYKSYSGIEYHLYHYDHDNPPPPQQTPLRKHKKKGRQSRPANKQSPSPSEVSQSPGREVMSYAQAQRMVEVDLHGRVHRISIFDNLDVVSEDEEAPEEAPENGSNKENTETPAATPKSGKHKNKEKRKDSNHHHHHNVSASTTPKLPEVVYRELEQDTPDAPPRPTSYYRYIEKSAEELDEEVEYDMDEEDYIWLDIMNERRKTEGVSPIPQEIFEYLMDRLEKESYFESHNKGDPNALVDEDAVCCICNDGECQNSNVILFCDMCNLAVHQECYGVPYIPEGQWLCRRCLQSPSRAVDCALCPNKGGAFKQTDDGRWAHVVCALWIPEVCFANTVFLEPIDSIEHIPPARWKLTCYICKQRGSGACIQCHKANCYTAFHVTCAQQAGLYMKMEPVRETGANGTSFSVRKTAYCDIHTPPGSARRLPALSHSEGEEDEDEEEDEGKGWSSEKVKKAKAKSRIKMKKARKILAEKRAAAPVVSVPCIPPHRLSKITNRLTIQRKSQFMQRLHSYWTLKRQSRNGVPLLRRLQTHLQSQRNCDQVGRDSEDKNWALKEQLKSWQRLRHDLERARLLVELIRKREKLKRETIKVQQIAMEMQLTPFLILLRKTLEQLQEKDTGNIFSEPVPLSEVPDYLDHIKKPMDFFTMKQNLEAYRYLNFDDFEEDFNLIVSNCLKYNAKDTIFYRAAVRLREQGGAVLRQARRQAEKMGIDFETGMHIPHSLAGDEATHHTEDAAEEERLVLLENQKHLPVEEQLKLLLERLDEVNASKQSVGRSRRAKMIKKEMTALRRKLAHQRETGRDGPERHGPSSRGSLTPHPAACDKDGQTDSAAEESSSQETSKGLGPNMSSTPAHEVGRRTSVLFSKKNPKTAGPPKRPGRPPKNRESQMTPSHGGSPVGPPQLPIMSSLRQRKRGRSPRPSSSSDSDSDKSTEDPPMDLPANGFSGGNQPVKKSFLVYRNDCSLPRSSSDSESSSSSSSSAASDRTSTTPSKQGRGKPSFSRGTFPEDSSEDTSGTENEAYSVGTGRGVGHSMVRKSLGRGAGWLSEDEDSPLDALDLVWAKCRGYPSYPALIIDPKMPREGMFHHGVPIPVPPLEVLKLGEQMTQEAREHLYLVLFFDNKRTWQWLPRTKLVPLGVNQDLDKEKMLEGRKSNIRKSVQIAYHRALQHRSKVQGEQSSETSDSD

Fibroblast growth factor receptor 2 (Homo sapiens), sequence (P21802 22-821 limits assumed): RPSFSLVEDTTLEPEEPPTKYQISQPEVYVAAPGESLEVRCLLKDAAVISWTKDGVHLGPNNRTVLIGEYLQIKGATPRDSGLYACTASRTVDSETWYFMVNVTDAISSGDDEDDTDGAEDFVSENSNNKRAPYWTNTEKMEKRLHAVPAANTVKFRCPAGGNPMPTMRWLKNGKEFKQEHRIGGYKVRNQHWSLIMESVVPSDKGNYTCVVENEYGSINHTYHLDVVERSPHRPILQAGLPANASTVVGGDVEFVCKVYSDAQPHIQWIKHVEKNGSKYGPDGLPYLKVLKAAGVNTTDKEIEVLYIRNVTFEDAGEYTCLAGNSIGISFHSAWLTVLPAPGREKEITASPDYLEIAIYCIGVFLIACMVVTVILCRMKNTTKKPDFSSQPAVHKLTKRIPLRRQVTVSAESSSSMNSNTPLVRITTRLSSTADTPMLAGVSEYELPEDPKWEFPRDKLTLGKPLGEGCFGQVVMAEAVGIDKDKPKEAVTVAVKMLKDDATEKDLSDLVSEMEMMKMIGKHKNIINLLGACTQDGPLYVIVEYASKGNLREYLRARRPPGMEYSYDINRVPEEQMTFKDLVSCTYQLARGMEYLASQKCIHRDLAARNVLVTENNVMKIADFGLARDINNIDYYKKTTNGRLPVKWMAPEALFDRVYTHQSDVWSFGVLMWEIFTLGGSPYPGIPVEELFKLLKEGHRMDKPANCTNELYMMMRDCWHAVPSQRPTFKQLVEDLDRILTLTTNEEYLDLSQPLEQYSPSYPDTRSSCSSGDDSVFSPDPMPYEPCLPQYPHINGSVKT

| SMILES | ΔTm [1] [°C] | ΔTm (Peregrin (Homo sapiens)) [°C] | ΔTm (Peregrin (Homo sapiens); Protein concentration 2.0 uM) [°C] |
| --- | --- | --- | --- |
| Cc1ncsc1-c1ccc(CNC(=O)[C@@H]2C[C@@H](O)CN2C(=O)[C@@H](NC(=O)COCCOCCOc2ccc(-c3ccc4ncnc(Nc5ccc(OCc6cccc(F)c6)c(Cl)c5)c4c3)cc2)C(C)(C)C)cc1 | -3.99 | 0 |  |
| CCN1C(C)(C)CC(Oc2ccc(C(=O)Nc3ccc(NC(=O)Nc4cc(C(C)(C)C)on4)cc3)nc2)CC1(C)C | -2 | -1.03 |  |
| Cc1cc(-c2ccc3nc(C4CCOCC4)n(CCOC(F)(F)F)c3c2)cn(C)c1=O | 0.33 | 4.67 |  |
| CC(c1cccc2ccccc12)n1cnc2c(=O)[nH]c(Cc3ccccc3)nc21 (centres undefined) | -1.64 | -0.65 |  |
| CS(=O)(=O)n1cc2c(n1)CN([C@H]1CO[C@H](c3cc(F)ccc3F)[C@@H](N)C1)C2 | -0.38 | 1.17 |  |
| CC[C@H](C)[C@H](NC(C)=O)C(=O)N[C@@H](CCC(=O)O)C(=O)N[C@H](C(=O)N[C@H](C=O)CC(=O)O)[C@@H](C)O (Ac-IETD-aldehyde) | 0.37 | -0.66 |  |
| CCc1c(-c2ccccc2)c(-c2ccccc2)nn1-c1ccccc1-c1cccc(OCC(=O)O)c1 | -1.61 | -3.01 |  |
| CN(Cc1cc(Br)cc(Br)c1N)C1CCCCC1 | -0.25 | 1.45 |  |
| COc1cc(O)c2c(c1)/C=C\C[C@H](O)[C@H](O)C(=O)/C=C\C[C@H](C)OC2=O | 2.24 | -1.29 |  |
| N=C(N)SCc1ccc(CN2C(=O)C(=O)c3cc(C(F)(F)F)ccc32)cc1 | 0.77 | 0.27 |  |
| CCC(CC)N(CCN(C)C(=O)CCC(=O)O)Cc1cccc(C(=O)Nc2sc3c(c2C(=O)c2cnn(-c4ccc(Cl)c(C(F)(F)F)c4)c2)CCC(C)(C)C3)c1 | -2.12 | -1.97 |  |
| O=C(O)/C(S)=C/c1ccc(I)cc1 | -1 | -1.4 |  |
| CC(C)NC(=O)c1ccc(OC(F)F)c(OCC2CC2)c1 | 0.29 | 0.69 |  |
| O=c1[nH]c(CS[C@H]2CC[C@H](O)CC2)nc2cc(OCC3CC3)cc(F)c12 | -0.27 | -0.24 |  |
| NS(=O)(=O)c1cc(-c2nnn[nH]2)c(NCc2cccs2)cc1Cl | 0.38 |  | 2 |
| O=C(O)CCNc1cc(N2CCc3ccccc3CC2)nc(-c2ccccn2)n1 | 0.4 | 0.6 |  |
| Cc1cc(Cl)cc(-c2c3sc(CN4C(=O)C5C(C4=O)C5(C)C)cc3nn2C)c1OC1CCNCC1 (centres undefined) | -0.72 | 0.52 |  |
| Cc1nn(CC(F)(F)F)cc1Nc1ncc(Br)c(NCc2ccc(S(N)(=O)=O)cc2)n1 | 2.95 | -0.36 |  |
| C[C@H](N)C(=O)N1C[C@H](CCCB(O)O)[C@](N)(C(=O)O)C1 | 0.25 | -0.07 |  |
| O=C(Nc1c[nH]nc1C(=O)NC1CCNCC1)c1cc(F)cc(F)c1 | 0.46 | -3.15 |  |
| Cc1cc(/N=N/c2ccc(S(=O)(=O)NC3CCCC3)cc2)c(N)cc1O | 2.06 | 7.73 |  |
| NCCOCCOCCNC(=O)Cc1ccc(Nc2nc(NCc3ccc(F)cc3)nc(NCC3CCCCC3)n2)cc1 | 0.03 | 2.13 |  |
| C[C@]12CCCN1CC1=NNC(=O)c3cc(F)cc4[nH]c2c1c34 | 0.9 | -1.02 |  |
| Oc1nc(-c2ccc(C(F)(F)F)cc2)nc2c1CSCC2 | -0.47 | 0.57 |  |
| COc1ccc(C(CN(C)C)C2(O)CCCCC2)cc1 (centres undefined) | 0.29 | -0.6 |  |
| Cc1cc(Cn2c(=O)n(Cc3cnc(C)s3)c(=O)c3cc(S(=O)(=O)NC4(C)CC4)ccc32)n(C)n1 | 0.47 | -1.12 |  |
| CN1C[C@@H]2[C@H](C1)[C@H]2CN(Cc1ccc(F)c(Cl)c1)C(=O)c1cn(C)cn1 | 0.05 | 1.67 |  |
